Test results published in patent US20040247577A1, “Method and composition for inhibiting heparanase activity” (priority 2001, published 2004).
Blank lines part the entries; values can stand above or below the molecule they belong to.

How the values were obtained:
[1] = target: T1, human heparanase (Homo sapiens, UniProt Q9Y251); conditions: cited from earlier work
T1 sequence (Q9Y251 158-543): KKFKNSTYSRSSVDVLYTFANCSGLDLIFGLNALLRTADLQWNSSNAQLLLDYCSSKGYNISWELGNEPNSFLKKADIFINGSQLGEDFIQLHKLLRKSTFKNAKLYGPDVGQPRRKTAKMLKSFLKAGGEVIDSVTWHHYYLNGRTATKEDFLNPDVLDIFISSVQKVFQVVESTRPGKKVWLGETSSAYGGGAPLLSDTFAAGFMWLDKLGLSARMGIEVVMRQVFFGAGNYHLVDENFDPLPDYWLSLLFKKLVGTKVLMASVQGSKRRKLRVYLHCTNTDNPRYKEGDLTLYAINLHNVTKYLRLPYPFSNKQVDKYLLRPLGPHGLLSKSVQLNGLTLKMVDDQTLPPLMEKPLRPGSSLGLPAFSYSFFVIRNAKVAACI
T1 sequence (Q9Y251 36-109): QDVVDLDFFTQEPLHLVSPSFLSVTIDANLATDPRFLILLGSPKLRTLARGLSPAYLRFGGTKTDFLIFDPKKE

[2] = target: T2, mouse heparanase (Mus musculus, UniProt Q6YGZ1); assay: Inhibition of recombinant mouse heparanase activity; type: biochemical
T2 construct: heterodimer of the 50 kDa polypeptide (Lys^150-Ile^535) and the 8 kDa peptide (Asp^28-Lys^100); made in house
T2 sequence (Q6YGZ1 150-535): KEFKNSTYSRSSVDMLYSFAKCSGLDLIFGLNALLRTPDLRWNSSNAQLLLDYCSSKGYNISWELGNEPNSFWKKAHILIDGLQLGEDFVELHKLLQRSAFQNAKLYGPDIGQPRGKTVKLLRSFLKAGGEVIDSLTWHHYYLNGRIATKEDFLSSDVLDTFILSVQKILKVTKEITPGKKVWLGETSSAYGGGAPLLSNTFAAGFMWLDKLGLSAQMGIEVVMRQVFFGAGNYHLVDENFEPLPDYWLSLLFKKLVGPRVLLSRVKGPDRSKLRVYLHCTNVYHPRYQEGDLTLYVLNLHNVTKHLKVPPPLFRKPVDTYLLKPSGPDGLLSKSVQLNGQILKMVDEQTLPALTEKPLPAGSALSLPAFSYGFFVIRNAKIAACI
T2 sequence (Q6YGZ1 28-100): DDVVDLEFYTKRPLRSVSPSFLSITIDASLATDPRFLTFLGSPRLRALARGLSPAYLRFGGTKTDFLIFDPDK
Protocol: (§1) Polypeptide samples were mixed with 25 μl of ^35S-ECM-HSPG (a generous gift from Dr. Israel Vlodavsky, The Hadassah-Hebrew University Hospital, Jerusalem, Israel) in a buffer containing 0.1 M sodium acetate, pH 5.0, 0.01% Triton X-100. After overnight incubation at 37° C., the samples were loaded onto a Superose 12 column (0.7×25 cm, 0.5 ml/min) and the radioactivity of the fractions (0.25 ml/fraction) were measured in a β-scintillation counter. The enzymatic activity was also studied for the ability to degrade HS. For this purpose, ^3H-HS-Sepharose (6.25 nM) was substituted as the substrate in the heparanase reaction, and the radioactivity released into the reaction buffer after overnight incubation was determined.

[3] = tested on: lung metastasis; conditions: cited from earlier work; for tumor growth and angiogenesis: Parish et al. 1999; for incidence of lung metastasis: experimental animals
[4] = Enzymatic activity of heparanase on radiolabeled HSPG / HS substrates; type: biochemical
Protocol: as §1, with “Israel Vlodavsky, The Hadassah-Hebrew University Hospital, Jerusalem, Israel) in a buffer containing 0.1 M sodium acetate, pH 5.0, 0.01% Triton X-100.” left out
To test whether the recombinant mouse heparanase is enzymatically active, purified polypeptide was incubated with metabolically radiolabeled HSPG. The reaction products were analyzed by gel filtration on a Superose 12 column.

IC50 [2]: 50 nM
inhibition of mouse heparanase activity at 1 μM ([2]; 1 μM): completely inhibited
Molecule: Laminarin sulfate
human heparanase activity in vitro [1]: inhibit
tumor growth and angiogenesis [3]: markedly reduced
incidence of lung metastasis [3]: markedly reduced
tumor metastasis in vivo ([3]; in vivo): inhibit

inhibition of mouse heparanase enzyme activity (in words) [2]: inhibited
Molecule: heparin

Molecule: mannopentaose phosphate sulfate [PI-88]
tumor growth and angiogenesis [3]: markedly reduced
incidence of lung metastasis [3]: markedly reduced

pH at which the enzyme was most active ([4]; ^3H-HS at various pH conditions): 5.0
additional enzyme necessary for comparable activity ([4]; pH 7.5 compared with pH 5.0): ~10 fold
B1: mouse heparanase: Recombinant full-length mouse heparanase polypeptide of 535 amino acids, mature form a heterodimer of 50 kDa and 8 kDa (protein, UniProt Q6YGZ1 1-535, looked up)
chain: MLRLLLLWLWGPLGALAQGAPAGTAPTDDVVDLEFYTKRPLRSVSPSFLSITIDASLATDPRFLTFLGSPRLRALARGLSPAYLRFGGTKTDFLIFDPDKEPTSEERSYWKSQVNHDICRSEPVSAAVLRKLQVEWPFQELLLLREQYQKEFKNSTYSRSSVDMLYSFAKCSGLDLIFGLNALLRTPDLRWNSSNAQLLLDYCSSKGYNISWELGNEPNSFWKKAHILIDGLQLGEDFVELHKLLQRSAFQNAKLYGPDIGQPRGKTVKLLRSFLKAGGEVIDSLTWHHYYLNGRIATKEDFLSSDVLDTFILSVQKILKVTKEITPGKKVWLGETSSAYGGGAPLLSNTFAAGFMWLDKLGLSAQMGIEVVMRQVFFGAGNYHLVDENFEPLPDYWLSLLFKKLVGPRVLLSRVKGPDRSKLRVYLHCTNVYHPRYQEGDLTLYVLNLHNVTKHLKVPPPLFRKPVDTYLLKPSGPDGLLSKSVQLNGQILKMVDEQTLPALTEKPLPAGSALSLPAFSYGFFVIRNAKIAACI
modifications: full-length
notes: Recombinant full-length mouse heparanase polypeptide of 535 amino acids, mature form a heterodimer of 50 kDa and 8 kDa
enzymatic activity at pH 4.0 or 8.0 ([4]; pH 4.0 or 8.0): Little or no enzymatic activity was detected
amount of heparanase giving maximal degradation of 6.25 nmole ^3H-HS ([4]; pH 5.0): 50 ng
degradation of ^35S-HSPG, elution profile on Superose 12 column ([4]; undigested substrate eluted in fractions 5-15): eluted as low-MW fragments in later fractions (16-35)
